Laboratory results reported in patent US20260027083A1, “USE OF PPAR AGONIST FOR IMPROVEMENT OF ENERGY METABOLISM” (NOVMETAPHARMA CO., LTD., priority 2022, published 2026).

Experiments:
high-fat diet mice [1] = test: Histology of adipose tissues of high-fat diet mice (H&E); format: in vivo, C57BL/6J mice; conditions: 5 mg/kg/day oral, 60% HFD
Method: (§1) The care and use of experimental animals were carried out with the approval of the Institutional Animal Care and Use Committee of Pohang University of Science and Technology. C57BL/6J mice were purchased from Japan SLC, Inc. 50 four-week-old male C57/BL/6J mice were acclimated for 2 weeks. The mice were randomly divided and orally administered with vehicle or 5 mg/kg/day of D6 or WY14643 for 13 weeks (oral gavage), and obesity was induced by a 60% high-fat diet (#D12492, Research diets, NJ, USA). Body weights and food intakes were measured weekly from 6 weeks of age, and after 16 weeks of age, adipose tissue and muscle volumes were measured using a Trimodality imaging system.
(§2) Mouse tissues were fixed with 10% formalin solution (Sigma-Aldrich, St. Louis, MO, USA), and paraffin-embedded tissues were segmented and stained with hematoxylin and eosin (H&E) staining and Sirius Red staining (IHC world, Woodstock, USA).
To observe the effects of the compound represented by Chemical Formula 1 on metabolic diseases, biopsy was performed on adipose tissues of high-fat diet mice.

high-fat diet mice [2] = test: High-fat diet mice: body weight and food intake; format: in vivo, C57BL/6J mice; conditions: 5 mg/kg/day oral, 13 weeks, 60% HFD, vs HFD-V, FIG. 6
Method: as §1
(§3) To confirm a metabolic disease inhibitory effect of the compound represented by Chemical Formula 1 through animal experiments, mice were acclimated for 2 weeks, and then obesity was induced by feeding a 60% high fat diet (HFD) and orally administered with vehicle or 5 mg/kg/day of the compound represented by Chemical Formula 1 (D6) or WY14643 for 13 weeks. Experiments such as IP-GTT, IP-ITT, and micro-CT were performed at the week 10 of drug administration (FIG. 5).

high-fat diet mice [3] = test: Serum analysis of high-fat diet mice; format: in vivo, C57BL/6J mice; conditions: 5 mg/kg/day oral, 60% HFD
Method: as §1
Mouse blood was obtained by cardiac puncture and incubated at room temperature for 30 minutes. Next, the blood sample was centrifuged at 3,000 rpm for 30 minutes at 4° C., and then the supernatant was collected and analyzed.
as §3

high-fat diet mice [4] = test: Intraperitoneal glucose tolerance test (IP-GTT) in high-fat diet mice; format: in vivo, C57BL/6J mice; conditions: 5 mg/kg/day oral, 60% HFD, glucose 2 g/kg i.p. after 16 h fasting, FIG. 10
Method: as §1
A glucose tolerance test (GTT) was performed on mice after 16 weeks of age after fasting for 16 hours and intraperitoneal glucose administration at 2 g/kg body weight. The blood glucose levels were measured at 0, 15, 30, 45, 60, 90, and 120 minutes after tail vein injection.
as §3, with “Experiments such as IP-GTT, IP-ITT, and micro-CT were performed at the week 10 of drug administration (FIG. 5).” left out

PPARα = biological target: T1, PPARα (Homo sapiens, UniProt Q07869); test: Gal4 trans-activated luciferase reporter assay, PPARα-LBD, HEK293; format: cell-based; conditions: HEK293, drug treatment 24 hours, FIG. 1
T1 construct: three types of pcDNA5-GAL4 and pGALRE-luc containing PPARα-LBD, PPARβ/δ-LBD, or PPARγ-LBD; GAL4 (fusion partner from vector pcDNA5-GAL4); expressed in transfected cells; host or cells: HEK293
T1 sequence (Q07869 239-466 limits assumed): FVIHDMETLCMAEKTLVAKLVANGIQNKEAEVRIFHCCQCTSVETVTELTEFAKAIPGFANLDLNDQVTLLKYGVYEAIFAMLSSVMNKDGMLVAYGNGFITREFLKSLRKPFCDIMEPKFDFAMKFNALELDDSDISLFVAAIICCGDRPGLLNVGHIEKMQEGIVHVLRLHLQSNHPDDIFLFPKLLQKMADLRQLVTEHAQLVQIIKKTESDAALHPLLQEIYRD
Method: A plasmid was transformed into E. coli (DE3, Rosetta) and transfected into HEK293 cells and used. Referring to known literatures such as Kanno, Y. & Inouye, Y. J Toxicol Sci 35, 515-525 (2010), Zhao, S. et al. J Nat Prod 79, 879-885 (2016), etc., luciferase assay was performed on three types of pcDNA5-GAL4 and pGALRE-luc containing PPARα-LBD, PPARβ/δ-LBD, or PPARγ-LBD. pProEX-PPAR and pET-28a were used for purification of His-tagged recombinant hPPAR-LBD protein.
A HEK293 cell line was cultured in Dulbecco's Modified Eagle Medium (DMEM) containing 10% Fetal Bovine Serum (FBS) and 1% penicillin-streptomycin (P/S). […]
Transfected HEK293 cells were treated with a drug and after 24 hours, the cells were collected, resuspended in a luciferase lysis buffer (Promega, Madison, Wisconsin, USA), and incubated on ice for 10 minutes. […] Next, Firefly Luciferase (Fluc) and Renilla Luciferase (Rluc) activities were measured using the Dual Luciferase Reporter Assay System (Promega, Madison, Wisconsin, USA). […]
To confirm whether a compound represented by Chemical Formula 1 was a PPAR agonist, Gal4 trans-activated luciferase assay was performed. Specifically, HEK293 cells were transfected with the Gal4-luciferase reporter systems of PPARα, PPARβ/δ, and PPARγ, respectively, harvested after drug treatment for 24 hours, and then analyzed by Dual-Luciferase assay. […]

high-fat diet mice [5] = test: Histology of liver tissues of high-fat diet mice (H&E, Sirius Red, Oil Red O, NAFLD activity score); format: in vivo, C57BL/6J mice; conditions: 5 mg/kg/day oral, 13 weeks HFD
Method: After the differentiation of 3T3-L1 in the 12-well plate was completed, the cells were fixed with 4% paraformaldehyde and stained with an Oil Red O solution, and then the stained samples were photographed under a microscope (Nikon Eclipse Ti-s). An Oil Red O dye of the samples was dissolved in isopropanol, detected by a spectrophotometer at 492 nm, and the lipid droplet size distribution was measured using ImageJ. OCT-embedded liver samples were stained according to the Roy Ellis protocol.
as §1, §2
Fibrosis and vesicular fat in liver tissue were observed using Sirius Red and Oil Red O staining methods. The NAFLD activation score was evaluated by referring to Kleiner, D. E. et al. Hepatology 41, 1313-1321, doi: 10.1002/hep.20701 (2005), etc., according to the NASH Clinical Research Network Scoring System.
To evaluate the effects on fatty liver-related symptoms after administration of the compound represented by Chemical Formula […], Sirius Red, and Oil Red O staining were performed on liver tissues of mice fed with a high-fat diet for 13 weeks.

In the case of `COc1ccc(-c2cc(=O)oc3c(C)c(OC(=O)[C@H](Cc4c[nH]c5ccccc45)NC(=O)OC(C)(C)C)ccc23)cc1` [Chemical Formula 1, [4-(4-methoxyphenyl)-8-methyl-2-oxochromen-7-yl] (2S)-3-(1H-indol-3-yl)-2-[(2-methylpropan-2-yl)oxycarbonylamino]propanoate], the “adipocyte sizes in adipose tissue (H&E staining)” value (high-fat diet mice [1]; FIG. 14) is reported as “reduced”, the “adipocyte size distribution, brown adipose tissue (BAT)” value (high-fat diet mice [1]; FIG. 15) is reported as “reducing adipocyte sizes” and the “adipocyte size distribution, epididymal white adipose tissue (eWAT)” value (high-fat diet mice [1]; FIG. 15) is reported as “reducing adipocyte sizes”. The “adipocyte size distribution, inguinal WAT (iWAT)” value (high-fat diet mice [1]; FIG. 15) was “reducing adipocyte sizes”, the food intake (high-fat diet mice [2]) was “no significant change” and the “rate of weight gain” value (high-fat diet mice [2]) was “significantly reduced”. For the same compound, the “blood sugar (serum glucose)” value (high-fat diet mice [3]; FIG. 12) was “significantly reduced”, the “blood lipids (LDLC)” value (high-fat diet mice [3]; FIG. 13) was “significantly reduced” and the “glucose tolerance (IP-GTT)” value (high-fat diet mice [4]) was “improved”. The “relative luciferase activity (Fluc to Rluc) for PPARα” value (PPARα) was “dose-dependently increased”, the “level of lipid droplet accumulation in the liver (Oil Red O)” value (high-fat diet mice [5]; FIG. 18) was “reduced” and the “NAFLD activity score (H&E images of liver tissue)” value (high-fat diet mice [5]; compared with WY14643 5 mg/kg/day, FIG. 17) was “better effect of improving the NAFLD disease index than the high-fat diet mice (HFD-WY) administered with WY14643”. The “histological findings of fatty liver-related diseases in liver tissue” value (high-fat diet mice [5]; vs HFD-V, FIG. 16) was “reduced”.
